Reference: PubChem BioAssay AID256 (DTP/NCI, 2004)
Toxic doses and inconclusive results are not listed.

System: CD2F1 mice, L1210 leukemia ip, survival T/C
Assay: NCI In Vivo Anticancer Drug Screen. Data for tumor model L1210 Leukemia (intraperitoneal) in CD2F1 (CDF1) mice
Settings: higher = longer survival
In short: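 Activity against a transplanted murine tumor was judged by comparing the compound group with a vehicle group. The outcome in the treated animals was divided by that in the controls.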

[1] = endpoint: mean survival time, dose: 75.0 mg/kg/injection, schedule: Q01DX001 (ip), vehicle: saline
[2] = endpoint: mean survival time, dose: 150.0 mg/kg/injection, schedule: Q01DX001 (ip), vehicle: saline
[3] = endpoint: mean survival time, dose: 100.0 mg/kg/injection, schedule: Q01DX001 (ip), vehicle: saline with Tween-80
[4] = endpoint: mean survival time, dose: 200.0 mg/kg/injection, schedule: Q01DX001 (ip), vehicle: saline with Tween-80
[5] = endpoint: mean survival time, dose: 400.0 mg/kg/injection, schedule: Q01DX001 (ip), vehicle: saline with Tween-80
[6] = endpoint: mean survival time, dose: 100.0 mg/kg/injection, schedule: Q04DX003 (ip), vehicle: saline with Tween-80
[7] = endpoint: mean survival time, dose: 200.0 mg/kg/injection, schedule: Q04DX003 (ip), vehicle: saline with Tween-80
[8] = endpoint: mean survival time, dose: 400.0 mg/kg/injection, schedule: Q04DX003 (ip), vehicle: saline with Tween-80
[9] = endpoint: mean survival time, dose: 100.0 mg/kg/injection, schedule: Q01DX009 (ip), vehicle: saline with Tween-80
[10] = endpoint: mean survival time, dose: 300.0 mg/kg/injection, schedule: Q01DX001 (ip), vehicle: saline
[11] = endpoint: mean survival time, dose: 100.0 mg/kg/injection, schedule: Q04DX002 (ip), vehicle: saline with Tween-80
[12] = endpoint: mean survival time, dose: 200.0 mg/kg/injection, schedule: Q04DX002 (ip), vehicle: saline with Tween-80
[13] = endpoint: mean survival time, dose: 100.0 mg/kg/injection, schedule: Q01DX009 (ip), vehicle: other
[14] = endpoint: mean survival time, dose: 200.0 mg/kg/injection, schedule: Q01DX009 (ip), vehicle: other
[15] = endpoint: mean survival time, dose: 400.0 mg/kg/injection, schedule: Q01DX009 (ip), vehicle: other

In the case of `CCc1ccc(S(=O)(=O)c2ccc(C)cc2)cc1`, the T/C (endpoint: mean survival time, dose: 75.0 mg/kg/injection, schedule: Q04DX003 (ip), vehicle: saline) is reported as 100 % of control, the T/C (endpoint: mean survival time, dose: 150.0 mg/kg/injection, schedule: Q04DX003 (ip), vehicle: saline) is reported as 100 % of control and the T/C (endpoint: mean survival time, dose: 300.0 mg/kg/injection, schedule: Q04DX003 (ip), vehicle: saline) is reported as 100 % of control.
`NC(=O)c1csc(C2OC(CO)C(O)C2O)[n+]1[O-]` (stereo not given) was tested, and the T/C (endpoint: median survival time, dose: 9.38 mg/kg/injection, schedule: Q01DX005 (ip), vehicle: saline) was 102 % of control, the T/C (endpoint: median survival time, dose: 18.75 mg/kg/injection, schedule: Q01DX005 (ip), vehicle: saline) was 101 % of control and the T/C (endpoint: median survival time, dose: 37.5 mg/kg/injection, schedule: Q01DX005 (ip), vehicle: saline) was 103 % of control. For the same compound, the T/C (endpoint: median survival time, dose: 75.0 mg/kg/injection, schedule: Q01DX005 (ip), vehicle: saline) was 104 % of control and the T/C (endpoint: median survival time, dose: 150.0 mg/kg/injection, schedule: Q01DX005 (ip), vehicle: saline) was 104 % of control.
In the case of `CN(C)CC1CCCCCC(Br)C1O` (stereo not given), the T/C [1] is reported as 100 % of control and the T/C [2] is reported as 94 % of control.
With `CC1=C/C(=N/Nc2ccc([N+](=O)[O-])cc2[N+](=O)[O-])CC(C)(C)C1` the T/C [3] was 92 % of control, the T/C [4] was 90 % of control and the T/C [5] was 95 % of control.
With `CCC(C)OC(=O)Nc1cccc(OC(=O)N(C)C)c1` (stereo not given) the T/C [6] was 97 % of control, the T/C [7] was 97 % of control and the T/C [8] was 100 % of control.
`C=CC(C)(C)S(=O)[O-].C[c-]1[c-][c-][c-][c-]1.[C-]#[O+].[C-]#[O+].[Fe+6]` was tested, and the T/C (endpoint: mean survival time, dose: 50.0 mg/kg/injection, schedule: Q04DX002 (ip), vehicle: saline) was 109 % of control and the T/C (endpoint: mean survival time, dose: 100.0 mg/kg/injection, schedule: Q04DX002 (ip), vehicle: saline) was 102 % of control.
With `C=C(C)[C@@H]1CCc2c(O)c(O)c(=O)cc(C)c2C1` the T/C (endpoint: mean survival time, dose: 3.12 mg/kg/injection, schedule: Q01DX009 (ip), vehicle: saline with Tween-80) was 89 % of control, the T/C (endpoint: mean survival time, dose: 6.25 mg/kg/injection, schedule: Q01DX009 (ip), vehicle: saline with Tween-80) was 96 % of control and the T/C (endpoint: mean survival time, dose: 12.5 mg/kg/injection, schedule: Q01DX009 (ip), vehicle: saline with Tween-80) was 93 % of control. For the same compound, the T/C (endpoint: mean survival time, dose: 25.0 mg/kg/injection, schedule: Q01DX009 (ip), vehicle: saline with Tween-80) was 95 % of control, the T/C (endpoint: mean survival time, dose: 50.0 mg/kg/injection, schedule: Q01DX009 (ip), vehicle: saline with Tween-80) was 106 % of control and the T/C [9] was 108 % of control.
With `CN1C=NN(C)C=N1` the T/C [1] was 100 % of control, the T/C [2] was 97 % of control and the T/C [10] was 108 % of control.
`C(=Nc1ccc2ccccc2c1)c1ccccc1` was tested, and the T/C (endpoint: mean survival time, dose: 50.0 mg/kg/injection, schedule: Q04DX002 (ip), vehicle: saline with Tween-80) was 91 % of control, the T/C [11] was 95 % of control and the T/C [12] was 95 % of control. The T/C (endpoint: mean survival time, dose: 400.0 mg/kg/injection, schedule: Q04DX002 (ip), vehicle: saline with Tween-80) was 98 % of control.
With `CNC(=O)Nc1ccncc1` the T/C [9] was 97 % of control, the T/C (endpoint: mean survival time, dose: 200.0 mg/kg/injection, schedule: Q01DX009 (ip), vehicle: saline with Tween-80) was 102 % of control and the T/C (endpoint: mean survival time, dose: 400.0 mg/kg/injection, schedule: Q01DX009 (ip), vehicle: saline with Tween-80) was 102 % of control.
`COC(=O)C#CBr` was tested, and the T/C (endpoint: mean survival time, dose: 6.25 mg/kg/injection, schedule: Q04DX003 (ip), vehicle: other) was 103 % of control and the T/C (endpoint: mean survival time, dose: 12.5 mg/kg/injection, schedule: Q04DX003 (ip), vehicle: other) was 96 % of control.
In the case of `O=S(=O)(F)c1ccc(Cl)c(Cl)c1S`, the T/C [11] is reported as 98 % of control and the T/C [12] is reported as 98 % of control.
With `O=[N+]([O-])c1ccc(OC(=S)c2ccccc2)cc1` the T/C [11] was 96 % of control and the T/C [12] was 96 % of control.
With `Cc1cc(C)c(C(=O)CC(C)C)c(C)c1` the T/C (endpoint: mean survival time, dose: 100.0 mg/kg/injection, schedule: Q01DX001 (ip), vehicle: saline) was 104 % of control, the T/C (endpoint: mean survival time, dose: 200.0 mg/kg/injection, schedule: Q01DX001 (ip), vehicle: saline) was 104 % of control and the T/C (endpoint: mean survival time, dose: 400.0 mg/kg/injection, schedule: Q01DX001 (ip), vehicle: saline) was 104 % of control.
For `CCOC(=O)c1ccc(NCC2=Nc3c(N)nc(N)nc3NC2)cc1`, the T/C (endpoint: mean survival time, dose: 12.5 mg/kg/injection, schedule: Q01DX001 (ip), vehicle: carboxymethylcellulose (CMC)) was 95 % of control, the T/C (endpoint: mean survival time, dose: 25.0 mg/kg/injection, schedule: Q01DX001 (ip), vehicle: carboxymethylcellulose (CMC)) was 108 % of control and the T/C (endpoint: mean survival time, dose: 50.0 mg/kg/injection, schedule: Q01DX001 (ip), vehicle: carboxymethylcellulose (CMC)) was 96 % of control.
In the case of `COC(=O)c1cc(OC)cc(OC)c1`, the T/C [13] is reported as 96 % of control, the T/C [14] is reported as 110 % of control and the T/C [15] is reported as 91 % of control.
With `O=c1cc(O)cn[nH]1` the T/C (endpoint: mean survival time, dose: 25.0 mg/kg/injection, schedule: Q01DX009 (ip), vehicle: other) was 97 % of control, the T/C (endpoint: mean survival time, dose: 50.0 mg/kg/injection, schedule: Q01DX009 (ip), vehicle: other) was 97 % of control and the T/C [13] was 104 % of control. The T/C [14] was 102 % of control and the T/C [15] was 102 % of control.
With `CCN(CC)CCOc1ccc(C2=CC3(CCCCC3)c3ccccc32)cc1` the T/C (endpoint: mean survival time, dose: 12.5 mg/kg/injection, schedule: Q04DX002 (ip), vehicle: saline with Tween-80) was 106 % of control and the T/C (endpoint: mean survival time, dose: 25.0 mg/kg/injection, schedule: Q04DX002 (ip), vehicle: saline with Tween-80) was 98 % of control.
In the case of `[N-]=[N+]=CC(=O)NCC(=O)NCCNCCO`, the T/C [15] is reported as 156 % of control, the T/C (endpoint: mean survival time, dose: 600.0 mg/kg/injection, schedule: Q01DX009 (ip), vehicle: other) is reported as 164 % of control and the T/C (endpoint: mean survival time, dose: 800.0 mg/kg/injection, schedule: Q01DX009 (ip), vehicle: other) is reported as 155 % of control.
`CC1(C)CN(c2ccccc2)NC1=O` was tested, and the T/C (endpoint: mean survival time, dose: 1.25 mg/kg/injection, schedule: Q01DX009 (ip), vehicle: Klucel (hydroxypropylcellulose) (HPC)) was 101 % of control, the T/C (endpoint: mean survival time, dose: 2.5 mg/kg/injection, schedule: Q01DX009 (ip), vehicle: Klucel (hydroxypropylcellulose) (HPC)) was 98 % of control and the T/C (endpoint: mean survival time, dose: 5.0 mg/kg/injection, schedule: Q01DX009 (ip), vehicle: Klucel (hydroxypropylcellulose) (HPC)) was 101 % of control.
For `COc1ccccc1N=O`, the T/C (endpoint: mean survival time, dose: 12.5 mg/kg/injection, schedule: Q01DX001 (ip), vehicle: Klucel (hydroxypropylcellulose) (HPC)) was 93 % of control, the T/C (endpoint: mean survival time, dose: 25.0 mg/kg/injection, schedule: Q01DX001 (ip), vehicle: Klucel (hydroxypropylcellulose) (HPC)) was 96 % of control and the T/C (endpoint: mean survival time, dose: 50.0 mg/kg/injection, schedule: Q01DX001 (ip), vehicle: Klucel (hydroxypropylcellulose) (HPC)) was 93 % of control.
With `CC(C)(C)OC(=O)NOC(=O)C(C)(C)C` the T/C (endpoint: mean survival time, dose: 25.0 mg/kg/injection, schedule: Q04DX003 (ip), vehicle: saline with Tween-80) was 101 % of control, the T/C (endpoint: mean survival time, dose: 50.0 mg/kg/injection, schedule: Q04DX003 (ip), vehicle: saline with Tween-80) was 100 % of control and the T/C [6] was 96 % of control. For the same compound, the T/C [7] was 89 % of control and the T/C [8] was 87 % of control.
With `CC(=O)NC(Cc1ccccc1)C(C)=O` (stereo not given) the T/C [3] was 102 % of control, the T/C [4] was 98 % of control and the T/C [5] was 102 % of control.
In the case of `CO/N=C(\N)c1ncn(C2OC3COP(=O)(O)OC3C2O)c1N` (stereo not given), the T/C (endpoint: median survival time, dose: 49.8 mg/kg/injection, schedule: Q01DX005 (ip), vehicle: saline) is reported as 98 % of control, the T/C (endpoint: median survival time, dose: 99.5 mg/kg/injection, schedule: Q01DX005 (ip), vehicle: saline) is reported as 100 % of control and the T/C (endpoint: median survival time, dose: 199.1 mg/kg/injection, schedule: Q01DX005 (ip), vehicle: saline) is reported as 96 % of control.
For `O=S(=O)(O)SNCCN1CCOCC1`, the T/C (endpoint: mean survival time, dose: 6.25 mg/kg/injection, schedule: Q01DX009 (ip), vehicle: saline) was 106 % of control, the T/C (endpoint: mean survival time, dose: 6.25 mg/kg/injection, schedule: Q04DX003 (ip), vehicle: saline) was 104 % of control and the T/C (endpoint: mean survival time, dose: 12.5 mg/kg/injection, schedule: Q01DX009 (ip), vehicle: saline) was 98 % of control. For the same compound, the T/C (endpoint: mean survival time, dose: 12.5 mg/kg/injection, schedule: Q04DX003 (ip), vehicle: saline) was 102 % of control, the T/C (endpoint: mean survival time, dose: 25.0 mg/kg/injection, schedule: Q01DX009 (ip), vehicle: saline) was 107 % of control and the T/C (endpoint: mean survival time, dose: 25.0 mg/kg/injection, schedule: Q04DX003 (ip), vehicle: saline) was 101 % of control.
In the case of `Nc1nc2c(c(=O)[nH]1)CN(c1ccc(Cl)cc1)C2`, the T/C [1] is reported as 98 % of control, the T/C [2] is reported as 104 % of control and the T/C [10] is reported as 93 % of control.
